From patent publication US11433111B2 (priority 2019, dated 2022) come the findings set out here.

The test has as its system scopolamine induced memory impairment in male Swiss albino mice. The experiment in a line: Passive avoidance test, scopolamine induced memory impairment. The settings on record: 5 mg/kg p.o.; scopolamine 1 mg/kg i.p.; mean ± SEM of six mice.

Source text: The rectangular larger compartment has 50 cm×50 cm grid floor and wooden walls of 35 cm height. The box was illuminated with a 100-W bulb placed 150 cm above the center. It has a roof, which can be opened or closed. One of the walls has a 6 cm×6 cm opening which to a dark smaller compartment having dimensions of 15 cm×15 cm. This compartment is provided with an electrifiable grid, which is connected to a constant current stimulator, and a ceiling that can be opened or closed. The connection between the two compartments can be closed with a sliding door made of transparent Plexiglas. […] The experiment was divided into three parts: An exploration test, Learning (Electric shock), and Retention testing.
The exploration test is done in three trials. During this, mice are placed in the center of the larger compartment facing away from the entrance to the dark compartment. The door between the two compartments is kept open. The mice are allowed to explore the apparatus (both larger and smaller compartments) for 3 minutes. In each trial, two things will be examined: Time taken by the mice to enter the dark compartment at each trial; and the total time spent by the animal in the dark compartment, using a stop-watch.
After the last exploration trial, the mice are placed in the larger compartment as done in the trial sessions. […]

Take `COc1cc2c(cc1OC)C(=O)C(CC1CCN(Cc3ccccc3)CC1)C2` (stereo not shown) [Donepezil]: the No. of crossings worked out at 1.17 ± 0.17.
